{"source": "patent US12435044B2", "about": "“Pyridazinone herbicides and pyridazinone intermediates used to prepare a herbicide” (FMC Corporation, priority 2018, dated 2025)", "assay_in_all_cases": "Test C pre-/postemergence greenhouse test", "assay_type_in_all_cases": "in vivo", "key": {"[1]": {"tested_on": "blackgrass (Alopecurus myosuroides)", "details": "scale 0 to 100", "summary_of_the_method": "(§1)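 Seeds sown in silt loam soil and sprayed preemergence with test chemicals in a non-phytotoxic solvent mixture containing surfactant. Postemergence plants, 2 to 18 cm (1- to 4-leaf stage), grown in peat/vermiculite planting medium and treated with the same formulation. Visual injury rated 0–100 versus untreated controls after 13 to 21 d in the greenhouse.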"}, "[2]": {"tested_on": "corn (Zea mays)", "details": "scale 0 to 100", "summary_of_the_method": "as §1"}, "[3]": {"tested_on": "crabgrass, large (Digitaria sanguinalis)", "details": "scale 0 to 100", "summary_of_the_method": "as §1"}, "[4]": {"tested_on": "foxtail, giant (Setaria faberii)", "details": "scale 0 to 100", "summary_of_the_method": "as §1"}, "[5]": {"tested_on": "johnsongrass (Sorghum halepense)", "details": "Preemergence, scale 0 to 100", "summary_of_the_method": "as §1"}, "[6]": {"tested_on": "kochia (Kochia scoparia)", "details": "scale 0 to 100", "summary_of_the_method": "as §1"}, "[7]": {"tested_on": "lambsquarters (Chenopodium album)", "details": "Preemergence, scale 0 to 100", "summary_of_the_method": "as §1"}, "[8]": {"tested_on": "morningglory (Ipomoea coccinea)", "details": "Preemergence, scale 0 to 100", "summary_of_the_method": "as §1"}, "[9]": {"tested_on": "oat, wild (Avena fatua)", "details": "scale 0 to 100", "summary_of_the_method": "as §1"}, "[10]": {"tested_on": "pigweed, palmer (Amaranthus palmeri)", "details": "scale 0 to 100", "summary_of_the_method": "as §1"}, "[11]": {"tested_on": "ragweed (common ragweed, Ambrosia elatior)", "details": "scale 0 to 100", "summary_of_the_method": "as §1"}, "[12]": {"tested_on": "ryegrass, Italian (Lolium multiflorum)", "details": "Preemergence, scale 0 to 100", "summary_of_the_method": "as §1"}, "[13]": {"tested_on": "surinam grass (Brachiaria decumbens)", "details": "Preemergence, scale 0 to 100", "summary_of_the_method": "as §1"}, "[14]": {"tested_on": "windgrass (Apera spica-venti)", "details": "Preemergence, scale 0 to 100", "summary_of_the_method": "as §1"}}}
{"compound": "Cc1ccc2ccc(F)cc2c1-c1c(O)c(Cl)nn(C)c1=O", "note": "[Cpd. No. 21]", "values": [{"measurement": "Plant response rating, Blackgrass", "setting": "[1]; Postemergence, 16 g ai/ha", "value": 35}, {"measurement": "Plant response rating, Blackgrass", "setting": "[1]; Postemergence, 31 g ai/ha", "value": 60}, {"measurement": "Plant response rating, Blackgrass", "setting": "[1]; Postemergence, 62 g ai/ha", "value": 65}, {"measurement": "Plant response rating, Blackgrass", "setting": "[1]; Postemergence, 125 g ai/ha", "value": 70}, {"measurement": "Plant response rating, Blackgrass", "setting": "[1]; Preemergence, 31 g ai/ha", "value": 50}, {"measurement": "Plant response rating, Blackgrass", "setting": "[1]; Preemergence, 61 g ai/ha", "value": 35}, {"measurement": "Plant response rating, Blackgrass", "setting": "[1]; Preemergence, 62 g ai/ha", "value": 85}, {"measurement": "Plant response rating, Blackgrass", "setting": "[1]; Preemergence, 125 g ai/ha", "value": 85}, {"measurement": "Plant response rating, Corn", "setting": "[2]; Postemergence, 16 g ai/ha", "value": 0}, {"measurement": "Plant response rating, Corn", "setting": "[2]; Postemergence, 31 g ai/ha", "value": 0}, {"measurement": "Plant response rating, Corn", "setting": "[2]; Postemergence, 62 g ai/ha", "value": 15}, {"measurement": "Plant response rating, Corn", "setting": "[2]; Postemergence, 125 g ai/ha", "value": 18}, {"measurement": "Plant response rating, Corn", "setting": "[2]; Preemergence, 31 g ai/ha", "value": 0}, {"measurement": "Plant response rating, Corn", "setting": "[2]; Preemergence, 61 g ai/ha", "value": 0}, {"measurement": "Plant response rating, Corn", "setting": "[2]; Preemergence, 62 g ai/ha", "value": 5}, {"measurement": "Plant response rating, Corn", "setting": "[2]; Preemergence, 125 g ai/ha", "value": 20}, {"measurement": "Plant response rating, Crabgrass, Large", "setting": "[3]; Postemergence, 16 g ai/ha", "value": 40}, {"measurement": "Plant response rating, Crabgrass, Large", "setting": "[3]; Postemergence, 31 g ai/ha", "value": 70}, {"measurement": "Plant response rating, Crabgrass, Large", "setting": "[3]; Postemergence, 62 g ai/ha", "value": 40}, {"measurement": "Plant response rating, Crabgrass, Large", "setting": "[3]; Postemergence, 125 g ai/ha", "value": 70}, {"measurement": "Plant response rating, Crabgrass, Large", "setting": "[3]; Preemergence, 31 g ai/ha", "value": 25}, {"measurement": "Plant response rating, Crabgrass, Large", "setting": "[3]; Preemergence, 61 g ai/ha", "value": 0}, {"measurement": "Plant response rating, Crabgrass, Large", "setting": "[3]; Preemergence, 62 g ai/ha", "value": 30}, {"measurement": "Plant response rating, Crabgrass, Large", "setting": "[3]; Preemergence, 125 g ai/ha", "value": 65}, {"measurement": "Plant response rating, Foxtail, Giant", "setting": "[4]; Postemergence, 16 g ai/ha", "value": 70}, {"measurement": "Plant response rating, Foxtail, Giant", "setting": "[4]; Postemergence, 31 g ai/ha", "value": 85}, {"measurement": "Plant response rating, Foxtail, Giant", "setting": "[4]; Postemergence, 62 g ai/ha", "value": 90}, {"measurement": "Plant response rating, Foxtail, Giant", "setting": "[4]; Postemergence, 125 g ai/ha", "value": 93}, {"measurement": "Plant response rating, Foxtail, Giant", "setting": "[4]; Preemergence, 31 g ai/ha", "value": 85}, {"measurement": "Plant response rating, Foxtail, Giant", "setting": "[4]; Preemergence, 61 g ai/ha", "value": 10}, {"measurement": "Plant response rating, Foxtail, Giant", "setting": "[4]; Preemergence, 62 g ai/ha", "value": 98}, {"measurement": "Plant response rating, Foxtail, Giant", "setting": "[4]; Preemergence, 125 g ai/ha", "value": 100}, {"measurement": "Plant response rating, Johnsongrass", "setting": "[5]; 31 g ai/ha", "value": 10}, {"measurement": "Plant response rating, Johnsongrass", "setting": "[5]; 61 g ai/ha", "value": 5}, {"measurement": "Plant response rating, Johnsongrass", "setting": "[5]; 62 g ai/ha", "value": 50}, {"measurement": "Plant response rating, Johnsongrass", "setting": "[5]; 125 g ai/ha", "value": 65}, {"measurement": "Plant response rating, Kochia", "setting": "[6]; Postemergence, 16 g ai/ha", "value": 13}, {"measurement": "Plant response rating, Kochia", "setting": "[6]; Postemergence, 31 g ai/ha", "value": 18}, {"measurement": "Plant response rating, Kochia", "setting": "[6]; Postemergence, 62 g ai/ha", "value": 28}, {"measurement": "Plant response rating, Kochia", "setting": "[6]; Postemergence, 125 g ai/ha", "value": 28}, {"measurement": "Plant response rating, Kochia", "setting": "[6]; Preemergence, 31 g ai/ha", "value": 20}, {"measurement": "Plant response rating, Kochia", "setting": "[6]; Preemergence, 61 g ai/ha", "value": 5}, {"measurement": "Plant response rating, Kochia", "setting": "[6]; Preemergence, 62 g ai/ha", "value": 70}, {"measurement": "Plant response rating, Kochia", "setting": "[6]; Preemergence, 125 g ai/ha", "value": 90}, {"measurement": "Plant response rating, Lambsquarters", "setting": "[7]; 31 g ai/ha", "value": 70}, {"measurement": "Plant response rating, Lambsquarters", "setting": "[7]; 61 g ai/ha", "value": 75}, {"measurement": "Plant response rating, Lambsquarters", "setting": "[7]; 62 g ai/ha", "value": 85}, {"measurement": "Plant response rating, Lambsquarters", "setting": "[7]; 125 g ai/ha", "value": 98}, {"measurement": "Plant response rating, Morningglory", "setting": "[8]; 31 g ai/ha", "value": 40}, {"measurement": "Plant response rating, Morningglory", "setting": "[8]; 61 g ai/ha", "value": 5}, {"measurement": "Plant response rating, Morningglory", "setting": "[8]; 62 g ai/ha", "value": 80}, {"measurement": "Plant response rating, Morningglory", "setting": "[8]; 125 g ai/ha", "value": 95}, {"measurement": "Plant response rating, Oat, Wild", "setting": "[9]; Postemergence, 16 g ai/ha", "value": 95}, {"measurement": "Plant response rating, Oat, Wild", "setting": "[9]; Postemergence, 31 g ai/ha", "value": 98}, {"measurement": "Plant response rating, Oat, Wild", "setting": "[9]; Postemergence, 62 g ai/ha", "value": 99}, {"measurement": "Plant response rating, Oat, Wild", "setting": "[9]; Postemergence, 125 g ai/ha", "value": 100}, {"measurement": "Plant response rating, Oat, Wild", "setting": "[9]; Preemergence, 31 g ai/ha", "value": 70}, {"measurement": "Plant response rating, Oat, Wild", "setting": "[9]; Preemergence, 61 g ai/ha", "value": 45}, {"measurement": "Plant response rating, Oat, Wild", "setting": "[9]; Preemergence, 62 g ai/ha", "value": 85}, {"measurement": "Plant response rating, Oat, Wild", "setting": "[9]; Preemergence, 125 g ai/ha", "value": 85}, {"measurement": "Plant response rating, Pigweed, Palmer", "setting": "[10]; Postemergence, 16 g ai/ha", "value": 30}, {"measurement": "Plant response rating, Pigweed, Palmer", "setting": "[10]; Postemergence, 31 g ai/ha", "value": 30}, {"measurement": "Plant response rating, Pigweed, Palmer", "setting": "[10]; Postemergence, 62 g ai/ha", "value": 30}, {"measurement": "Plant response rating, Pigweed, Palmer", "setting": "[10]; Postemergence, 125 g ai/ha", "value": 95}, {"measurement": "Plant response rating, Pigweed, Palmer", "setting": "[10]; Preemergence, 31 g ai/ha", "value": 55}, {"measurement": "Plant response rating, Pigweed, Palmer", "setting": "[10]; Preemergence, 61 g ai/ha", "value": 20}, {"measurement": "Plant response rating, Pigweed, Palmer", "setting": "[10]; Preemergence, 62 g ai/ha", "value": 70}, {"measurement": "Plant response rating, Pigweed, Palmer", "setting": "[10]; Preemergence, 125 g ai/ha", "value": 90}, {"measurement": "Plant response rating, Ragweed", "setting": "[11]; Postemergence, 16 g ai/ha", "value": 90}, {"measurement": "Plant response rating, Ragweed", "setting": "[11]; Postemergence, 31 g ai/ha", "value": 95}, {"measurement": "Plant response rating, Ragweed", "setting": "[11]; Postemergence, 62 g ai/ha", "value": 98}, {"measurement": "Plant response rating, Ragweed", "setting": "[11]; Postemergence, 125 g ai/ha", "value": 98}, {"measurement": "Plant response rating, Ragweed", "setting": "[11]; Preemergence, 31 g ai/ha", "value": 100}, {"measurement": "Plant response rating, Ragweed", "setting": "[11]; Preemergence, 61 g ai/ha", "value": 45}, {"measurement": "Plant response rating, Ragweed", "setting": "[11]; Preemergence, 62 g ai/ha", "value": 98}, {"measurement": "Plant response rating, Ragweed", "setting": "[11]; Preemergence, 125 g ai/ha", "value": 95}, {"measurement": "Plant response rating, Ryegrass, Italian", "setting": "[12]; 31 g ai/ha", "value": 98}, {"measurement": "Plant response rating, Ryegrass, Italian", "setting": "[12]; 61 g ai/ha", "value": 50}, {"measurement": "Plant response rating, Ryegrass, Italian", "setting": "[12]; 62 g ai/ha", "value": 98}, {"measurement": "Plant response rating, Ryegrass, Italian", "setting": "[12]; 125 g ai/ha", "value": 100}, {"measurement": "Plant response rating, Surinam Grass", "setting": "[13]; 31 g ai/ha", "value": 100}, {"measurement": "Plant response rating, Surinam Grass", "setting": "[13]; 61 g ai/ha", "value": 80}, {"measurement": "Plant response rating, Surinam Grass", "setting": "[13]; 62 g ai/ha", "value": 100}, {"measurement": "Plant response rating, Surinam Grass", "setting": "[13]; 125 g ai/ha", "value": 100}, {"measurement": "Plant response rating, Windgrass", "setting": "[14]; 31 g ai/ha", "value": 75}, {"measurement": "Plant response rating, Windgrass", "setting": "[14]; 61 g ai/ha", "value": 50}, {"measurement": "Plant response rating, Windgrass", "setting": "[14]; 62 g ai/ha", "value": 85}, {"measurement": "Plant response rating, Windgrass", "setting": "[14]; 125 g ai/ha", "value": 98}]}
